Measurements from paper PMC5218480 (PLoS ONE, 2017).

System: MV-4-11 cells
Experiment: Gene expression microarray analysis (Affymetrix PrimeView) and GSEA
Format: cell-based, human
Set-up: RFU PODN (11730768_x_at) / Fold change /veh PODN (11730768_x_at) / RFU LINC00158 (11744669_a_at) / Fold change /veh LINC00158 (11744669_a_at) / RFU DUSP10 (11751237_a_at) / Fold change /veh DUSP10 (11751237_a_at) / RFU ID3 (11757404_x_at) / Fold change /veh ID3 (11757404_x_at) / RFU PLEKHG5 (11737974_s_at) / Fold change /veh PLEKHG5 (11737974_s_at) / RFU LRRC4B (11730491_at) / Fold change /veh LRRC4B (11730491_at) / RFU GIMAP4 (11747438_a_at) / Fold change /veh GIMAP4 (11747438_a_at) / RFU KRT8 (11758183_x_at) / Fold change /veh KRT8 (11758183_x_at) / RFU CNN1 (11734310_a_at) / Fold change /veh CNN1 (11734310_a_at) / RFU VPS37D (11726825_at) / Fold change /veh VPS37D (11726825_at) / RFU C10orf10 (11716522_x_at) / Fold change /veh C10orf10 (11716522_x_at) / RFU KIR2DL2 /// KIR2DL4 /// KIR2DL5A /// KIR2DL5B /// KIR2DS1 /// KIR2DS2 /// KIR2DS3 /// KIR2DS4 /// KIR3DL3 /// KIR3DL3 /// KIR3DS1 (11738374_at) / Fold change /veh KIR2DL2 /// KIR2DL4 /// KIR2DL5A /// KIR2DL5B /// KIR2DS1 /// KIR2DS2 /// KIR2DS3 /// KIR2DS4 /// KIR3DL3 /// KIR3DL3 /// KIR3DS1 (11738374_at) / RFU C1QL1 (11718748_at) / Fold change /veh C1QL1 (11718748_at) / RFU TMPRSS4 (11747572_a_at) / Fold change /veh TMPRSS4 (11747572_a_at) / RFU HAMP (11756126_x_at) / Fold change /veh HAMP (11756126_x_at) / RFU RNFT2 (11725882_a_at) / Fold change /veh RNFT2 (11725882_a_at) / RFU NR4A2 (11747474_a_at) / Fold change /veh NR4A2 (11747474_a_at) / RFU ABCC12 (11746883_a_at) / Fold change /veh ABCC12 (11746883_a_at) / RFU TMEM136 (11760407_x_at) / Fold change /veh TMEM136 (11760407_x_at) / RFU CLDN22 /// WWC2 (11732394_at) / Fold change /veh CLDN22 /// WWC2 (11732394_at) / RFU HLA-DPB1 (11760878_x_at) / Fold change /veh HLA-DPB1 (11760878_x_at) / RFU SPINT1 (11716480_a_at) / Fold change /veh SPINT1 (11716480_a_at) / RFU GAP43 (11754022_s_at) / Fold change /veh GAP43 (11754022_s_at) / RFU A4GNT (11735810_at) / Fold change /veh A4GNT (11735810_at) / RFU PRB3 (11715151_x_at) / Fold change /veh PRB3 (11715151_x_at) / RFU TUBB4B (11761932_at) / Fold change /veh TUBB4B (11761932_at) / RFU CAPN14 (11732068_a_at) / Fold change /veh CAPN14 (11732068_a_at) / RFU TMCC2 (11721928_a_at) / Fold change /veh TMCC2 (11721928_a_at) / RFU IRGQ (11745062_a_at) / Fold change /veh IRGQ (11745062_a_at) / RFU FAM174B (11720279_a_at) / Fold change /veh FAM174B (11720279_a_at) / RFU TMPRSS4 (11748680_a_at) / Fold change /veh TMPRSS4 (11748680_a_at) / RFU FAM212B (11763350_a_at) / Fold change /veh FAM212B (11763350_a_at) / RFU PLEKHG5 (11743358_a_at) / Fold change /veh PLEKHG5 (11743358_a_at) / RFU ZSCAN30 (11745921_a_at) / Fold change /veh ZSCAN30 (11745921_a_at) / RFU CMKLR1 (11741424_a_at) / Fold change /veh CMKLR1 (11741424_a_at) / RFU LOC101060620 /// MAPK8IP1 (11723275_at) / Fold change /veh LOC101060620 /// MAPK8IP1 (11723275_at) / RFU SPTSSB (11747773_x_at) / Fold change /veh SPTSSB (11747773_x_at) / RFU PRSS12 (11739890_at) / Fold change /veh PRSS12 (11739890_at) / RFU BIN1 (11741810_x_at) / Fold change /veh BIN1 (11741810_x_at) / RFU WNT11 (11732464_a_at) / Fold change /veh WNT11 (11732464_a_at) / RFU C10orf10 (11716521_a_at) / Fold change /veh C10orf10 (11716521_a_at) / RFU C5orf56 (11738089_at) / Fold change /veh C5orf56 (11738089_at) / RFU CYB561 (11721691_x_at) / Fold change /veh CYB561 (11721691_x_at) / RFU ANKRD19P (11752326_a_at) / Fold change /veh ANKRD19P (11752326_a_at) / RFU OR2T12 /// OR2T33 /// OR2T8 (11738714_s_at) / Fold change /veh OR2T12 /// OR2T33 /// OR2T8 (11738714_s_at) / RFU VCAN (11748164_a_at) / Fold change /veh VCAN (11748164_a_at) / RFU JSRP1 (11732532_at) / Fold change /veh JSRP1 (11732532_at) / RFU KRTAP10-11 (11738290_x_at) / Fold change /veh KRTAP10-11 (11738290_x_at) / RFU MYO3A (11730013_a_at) / Fold change /veh MYO3A (11730013_a_at) / RFU EBF3 (11725865_a_at) / Fold change /veh EBF3 (11725865_a_at) / RFU CAMK2N1 (11719241_x_at) / Fold change /veh CAMK2N1 (11719241_x_at) / RFU C5orf56 (11738088_a_at) / Fold change /veh C5orf56 (11738088_a_at) / RFU OLFML3 (11715873_a_at) / Fold change /veh OLFML3 (11715873_a_at) / RFU LOC100653217 /// NTM (11731650_a_at) / Fold change /veh LOC100653217 /// NTM (11731650_a_at) / RFU MAPK11 (11762145_a_at) / Fold change /veh MAPK11 (11762145_a_at) / RFU FIZ1 (11724087_x_at) / Fold change /veh FIZ1 (11724087_x_at) / RFU OASL (11726364_x_at) / Fold change /veh OASL (11726364_x_at) / RFU SOX15 (11748057_x_at) / Fold change /veh SOX15 (11748057_x_at) / RFU CD79A (11719716_a_at) / Fold change /veh CD79A (11719716_a_at) / RFU HIST1H1D (11736915_at) / Fold change /veh HIST1H1D (11736915_at) / RFU CASKIN2 (11723855_a_at) / Fold change /veh CASKIN2 (11723855_a_at) / RFU LOC730098 (11760151_x_at) / Fold change /veh LOC730098 (11760151_x_at) / RFU OR4N2 (11742367_at) / Fold change /veh OR4N2 (11742367_at) / RFU PRRT2 (11749266_a_at) / Fold change /veh PRRT2 (11749266_a_at) / RFU SNX32 (11753110_a_at) / Fold change /veh SNX32 (11753110_a_at) / RFU CDHR5 (11726645_a_at) / Fold change /veh CDHR5 (11726645_a_at) / RFU RCAN1 (11760418_a_at) / Fold change /veh RCAN1 (11760418_a_at) / RFU FAM167A (11723789_a_at) / Fold change /veh FAM167A (11723789_a_at) / RFU FAM26E (11764081_at) / Fold change /veh FAM26E (11764081_at) / RFU ISYNA1 (11749810_s_at) / Fold change /veh ISYNA1 (11749810_s_at) / RFU ACY1 (11761880_at) / Fold change /veh ACY1 (11761880_at) / RFU 11764098_at / Fold change /veh 11764098_at / RFU SAMD14 (11745864_x_at) / Fold change /veh SAMD14 (11745864_x_at) / RFU NPB (11741838_a_at) / Fold change /veh NPB (11741838_a_at) / RFU TMPRSS6 (11731388_a_at) / Fold change /veh TMPRSS6 (11731388_a_at) / RFU KRTAP10-2 (11738614_at) / Fold change /veh KRTAP10-2 (11738614_at) / RFU ARHGAP8 /// PRR5-ARHGAP8 (11727945_x_at) / Fold change /veh ARHGAP8 /// PRR5-ARHGAP8 (11727945_x_at) / RFU KRTAP5-7 /// NADSYN1 (11734609_at) / Fold change /veh KRTAP5-7 /// NADSYN1 (11734609_at) / RFU RASL12 (11751679_a_at) / Fold change /veh RASL12 (11751679_a_at) / RFU CDKN2B (11736163_a_at) / Fold change /veh CDKN2B (11736163_a_at) / RFU PRF1 (11729649_at) / Fold change /veh PRF1 (11729649_at) / RFU, ZNF638 /// ZNF638-IT1 / Fold change vs veh, ZNF638 /// ZNF638-IT1 / RFU, PANK3 / Fold change vs veh, PANK3 / RFU, SH3YL1 / Fold change vs veh, SH3YL1 / RFU, ZEB2 / Fold change vs veh, ZEB2 / RFU, NRIP1 / Fold change vs veh, NRIP1 / RFU, PTTG1IP / Fold change vs veh, PTTG1IP / RFU, CAPN2 / Fold change vs veh, CAPN2 / RFU, MED14 / Fold change vs veh, MED14 / RFU, SNORA58 / Fold change vs veh, SNORA58 / RFU, C1orf63 / Fold change vs veh, C1orf63 / RFU, LRRFIP1 / Fold change vs veh, LRRFIP1 / RFU, NDUFAF7 / Fold change vs veh, NDUFAF7 / RFU, SLC12A2 / Fold change vs veh, SLC12A2 / RFU, IBTK / Fold change vs veh, IBTK / RFU, ESF1 / Fold change vs veh, ESF1 / Fold change vs veh, TMEM50B / RFU, TAOK1 / Fold change vs veh, TAOK1 / RFU, ACBD3 / Fold change vs veh, ACBD3 / RFU, TMA16 / Fold change vs veh, TMA16 / RFU, RWDD3 / Fold change vs veh, RWDD3 / RFU, BCAT1 / Fold change vs veh, BCAT1 / RFU, EDEM3 / Fold change vs veh, EDEM3 / RFU, TMEM33 / Fold change vs veh, TMEM33 / RFU, WDR75 / Fold change vs veh, WDR75 / RFU, AHCTF1 / Fold change vs veh, AHCTF1 / RFU, TFRC / Fold change vs veh, TFRC / RFU, ZDHHC17 / Fold change vs veh, ZDHHC17 / RFU, NOM1 / Fold change vs veh, NOM1 / RFU, ARL8B / Fold change vs veh, ARL8B / RFU, ZBTB11 / Fold change vs veh, ZBTB11 / RFU, TAMM41 / Fold change vs veh, TAMM41 / RFU, KIAA1704 /// LOC100996395 / Fold change vs veh, KIAA1704 /// LOC100996395 / RFU, ING1 / Fold change vs veh, ING1 / RFU, TRMT61B / Fold change vs veh, TRMT61B / RFU, FUBP3 / Fold change vs veh, FUBP3 / RFU, TP53 / Fold change vs veh, TP53 / RFU, TNKS2 / Fold change vs veh, TNKS2 / RFU, ZFP14 / Fold change vs veh, ZFP14 / RFU, ACTR2 / Fold change vs veh, ACTR2 / RFU, PPP3R1 / Fold change vs veh, PPP3R1 / RFU, PIK3R1 / Fold change vs veh, PIK3R1 / RFU, HNRNPA1 / Fold change vs veh, HNRNPA1 / RFU, RNF170 / Fold change vs veh, RNF170 / RFU, ZNF28 / Fold change vs veh, ZNF28 / RFU, RNGTT / Fold change vs veh, RNGTT / RFU, OGT / Fold change vs veh, OGT / RFU, BRD1 / Fold change vs veh, BRD1 / RFU, MARS / Fold change vs veh, MARS / RFU, ZNF655 / Fold change vs veh, ZNF655 / RFU, FAHD1 / Fold change vs veh, FAHD1 / RFU, BDP1 / Fold change vs veh, BDP1 / RFU, LRRCC1 / Fold change vs veh, LRRCC1 / RFU, ARID1A / Fold change vs veh, ARID1A / RFU, ZNF146 / Fold change vs veh, ZNF146 / RFU, ZNF330 / Fold change vs veh, ZNF330 / RFU, GPN3 / Fold change vs veh, GPN3 / RFU, C9orf123 / Fold change vs veh, C9orf123 / RFU, N4BP2L2 / Fold change vs veh, N4BP2L2 / RFU, ARFIP1 / Fold change vs veh, ARFIP1 / RFU, FAM179B / Fold change vs veh, FAM179B / RFU, BCL10 / Fold change vs veh, BCL10 / RFU, UHRF1BP1L / Fold change vs veh, UHRF1BP1L / RFU, BET1 / Fold change vs veh, BET1 / RFU, CNOT2 / Fold change vs veh, CNOT2 / RFU, ZNF268 / Fold change vs veh, ZNF268 / Fold change vs veh, ZNF507 / RFU, DGCR2 / Fold change vs veh, DGCR2 / RFU, WDSUB1 / Fold change vs veh, WDSUB1 / Fold change vs veh, HSP90B1 /// MIR3652 / RFU, ADSS / Fold change vs veh, ADSS / RFU, GK / Fold change vs veh, GK / RFU, ZNF148 / Fold change vs veh, ZNF148 / RFU, TAF9 / Fold change vs veh, TAF9 / RFU, SLC1A5 / Fold change vs veh, SLC1A5 / RFU, SLMO2 / Fold change vs veh, SLMO2 / RFU, ABCC4 / Fold change vs veh, ABCC4 / RFU, LOC101060439 /// RAP1B / Fold change vs veh, LOC101060439 /// RAP1B / RFU, RFX7 / Fold change vs veh, RFX7 / RFU, GTPBP10 / Fold change vs veh, GTPBP10 / RFU, CNEP1R1 / Fold change vs veh, CNEP1R1 / RFU, BIVM-ERCC5 /// ERCC5 / Fold change vs veh, BIVM-ERCC5 /// ERCC5 / RFU, ILF3 / Fold change vs veh, ILF3 / RFU 11762660_at / Fold change /veh 11762660_at / RFU VCAN (11757783_s_at) / Fold change /veh VCAN (11757783_s_at) / RFU DDX43 (11728927_at) / Fold change /veh DDX43 (11728927_at) / RFU KRT8 (11758188_x_at) / Fold change /veh KRT8 (11758188_x_at) / RFU NKD1 (11759106_at) / Fold change /veh NKD1 (11759106_at) / RFU SRD5A1 (11742802_a_at) / Fold change /veh SRD5A1 (11742802_a_at) / RFU TPSAB1 /// TPSB2 (11721975_s_at) / Fold change /veh TPSAB1 /// TPSB2 (11721975_s_at) / RFU GSTM3 (11746129_a_at) / Fold change /veh GSTM3 (11746129_a_at) / RFU IL23R (11737362_x_at) / Fold change /veh IL23R (11737362_x_at) / RFU TMEM51 (11727254_a_at) / Fold change /veh TMEM51 (11727254_a_at) / RFU PIWIL2 (11732686_x_at) / Fold change /veh PIWIL2 (11732686_x_at) / RFU ORM1 (11744905_x_at) / Fold change /veh ORM1 (11744905_x_at) / RFU CCDC152 (11743942_at) / Fold change /veh CCDC152 (11743942_at) / RFU ECM1 (11717891_a_at) / Fold change /veh ECM1 (11717891_a_at) / RFU IL23R (11748794_a_at) / Fold change /veh IL23R (11748794_a_at) / RFU TNFAIP8L3 (11732012_x_at) / Fold change /veh TNFAIP8L3 (11732012_x_at) / RFU MBOAT4 (11741988_at) / Fold change /veh MBOAT4 (11741988_at) / RFU 11764193_at / Fold change /veh 11764193_at / RFU TMEM53 (11763286_at) / Fold change /veh TMEM53 (11763286_at) / RFU MAGEB2 (11727129_at) / Fold change /veh MAGEB2 (11727129_at) / RFU TMEM200A (11744735_a_at) / Fold change /veh TMEM200A (11744735_a_at) / RFU CCDC152 (11751479_a_at) / Fold change /veh CCDC152 (11751479_a_at) / RFU FAM211A (11726209_a_at) / Fold change /veh FAM211A (11726209_a_at) / RFU RGS16 (11746705_a_at) / Fold change /veh RGS16 (11746705_a_at) / RFU VCAN (11755009_s_at) / Fold change /veh VCAN (11755009_s_at) / RFU RHOB (11743442_s_at) / Fold change /veh RHOB (11743442_s_at) / RFU RGS16 (11720943_a_at) / Fold change /veh RGS16 (11720943_a_at) / RFU RGS16 (11720944_at) / Fold change /veh RGS16 (11720944_at) / RFU, VPS4B / Fold change vs veh, VPS4B / RFU, CREB1 / Fold change vs veh, CREB1 / RFU, DNAJC13 / Fold change vs veh, DNAJC13 / RFU, GNAQ / Fold change vs veh, GNAQ / RFU, CDK5R1 / Fold change vs veh, CDK5R1 / RFU, ZRANB3 / Fold change vs veh, ZRANB3 / RFU, CUL4A / Fold change vs veh, CUL4A / RFU, CCNY / Fold change vs veh, CCNY / RFU, UFL1 / Fold change vs veh, UFL1 / RFU, COG3 / Fold change vs veh, COG3 / RFU, DIAPH2 / Fold change vs veh, DIAPH2 / RFU, SKA2 / Fold change vs veh, SKA2 / RFU, AFF3 / Fold change vs veh, AFF3 / RFU, LMF1 / Fold change vs veh, LMF1 / RFU, IPO11 / Fold change vs veh, IPO11 / RFU, DFFB / Fold change vs veh, DFFB / RFU, FOXP1 / Fold change vs veh, FOXP1 / RFU, CARD8 / Fold change vs veh, CARD8 / RFU, STRN3 / Fold change vs veh, STRN3 / RFU, ADK / Fold change vs veh, ADK / RFU, RASSF2 / Fold change vs veh, RASSF2 / RFU, WIPF1 / Fold change vs veh, WIPF1 / RFU, LARP1B / Fold change vs veh, LARP1B / RFU, RASA1 / Fold change vs veh, RASA1 / RFU, RB1 / Fold change vs veh, RB1 / RFU, PPFIA1 / Fold change vs veh, PPFIA1 / RFU, MAT2A / Fold change vs veh, MAT2A / RFU, CCT5 / Fold change vs veh, CCT5 / RFU, WDR92 / Fold change vs veh, WDR92 / RFU, CUX1 / Fold change vs veh, CUX1 / RFU, TTC7A / Fold change vs veh, TTC7A / RFU, TMEM135 / Fold change vs veh, TMEM135 / RFU, DEPTOR / Fold change vs veh, DEPTOR / RFU, CPM / Fold change vs veh, CPM / RFU, DNAJB6 / Fold change vs veh, DNAJB6 / RFU, CACNA2D3 / Fold change vs veh, CACNA2D3 / RFU, DTX4 / Fold change vs veh, DTX4 / RFU, TFCP2 / Fold change vs veh, TFCP2 / RFU, GMCL1 /// GMCL1P1 / Fold change vs veh, GMCL1 /// GMCL1P1 / RFU, AEBP2 / Fold change vs veh, AEBP2 / RFU, SNHG1 /// SNORD22 /// SNORD25 /// SNORD26 /// SNORD27 /// SNORD28 /// SNORD29 /// SNORD31 / Fold change vs veh, SNHG1 /// SNORD22 /// SNORD25 /// SNORD26 /// SNORD27 /// SNORD28 /// SNORD29 /// SNORD31 / Fold change (Aza/veh), C12orf56 (ProbeSet 11735607_a_at) / Fold change (ACY-1035/veh), C12orf56 (ProbeSet 11735607_a_at) / Fold change (Aza/veh), FGFR1OP (ProbeSet 11751329_s_at) / Fold change (ACY-1035/veh), FGFR1OP (ProbeSet 11751329_s_at) / Fold change (Aza/veh), VPS36 (ProbeSet 11739960_a_at) / Fold change (ACY-1035/veh), VPS36 (ProbeSet 11739960_a_at) / RFU SYPL1 (11715823_x_at) / Fold change /veh SYPL1 (11715823_x_at) / RFU IGFBP7 (11715501_s_at) / Fold change /veh IGFBP7 (11715501_s_at) / RFU REEP3 (11722064_at) / Fold change /veh REEP3 (11722064_at) / RFU IGLL1 (11728026_x_at) / Fold change /veh IGLL1 (11728026_x_at): dose or concentration left out as unconfirmed
Conditions: MV-4-11 cells, 48 hours

Nc1ncn([C@@H]2O[C@H](CO)[C@@H](O)[C@H]2O)c(=O)n1 [azacitidine]
Fold change /veh A4GNT (11735810_at): 0.90
